Measured values taken from patent publication US20240343761A1, “APELINERGIC MACROCYCLES AND USES THEREOF” (priority 2021, published 2024).
Where two headings read alike, the source gives them in different places. Numbered stars: 1 amine (or outer) side, 2 acyl side, 3 side chain; on linkers, the order of the positions; unused ones are H or OH. Bridge positions count the residues as written; N and C are the ends. Square brackets hold non-standard residues; d marks the D form. Peptide text beside a SMILES is read from it. * marks the point of attachment. X9 = O=C([C@H](CCCNCCC=[*:3])N[*:1])[*:2]; Phe(4-Br) = N[C@@H](Cc1ccc(Br)cc1)C(=O)O; AllylGly = C=CC[C@H](N)C(=O)O; pGlu = O=C1CC[C@@H](C(=O)O)N1; Nle = CCCC[C@H](N)C(=O)O; Bn = c1ccc(C*)cc1

Assays:
[1] = Rat plasma stability (half-life in vitro); assay type: in vitro ADME; conditions: male, Sprague-Dawley, rat, plasma, Table I, rat plasma, 37° C., up to 24 h; for half-life at […]: read-out: Half-life in vitro (converted)
Experimental: Plasma was obtained from male Sprague-Dawley rats by collecting blood in heparin tube and centrifugating at 13,000 rpm to remove blood cells. The isolated plasma was stored at −80° C. and thawed right before the test. In 96-well plate, 6 μL of peptide solution at 1 mM was incubated with 27 μL of plasma at 37° C. in an oven equipped with orbital shaker. Tightly fitted caps were used to seal the wells to avoid water evaporation during incubation. […] A 96-well UPLC plate was put at the bottom to collect the samples. Both plates were centrifuged at 500 g for 10 min at 4° C. to accelerate the filtration. […] The quantity of remaining peptide was plotted into an exponential one-phase decay curve using GraphPad Prism 8 which allowed to calculate peptide half-life. The results were presented as mean±SEM of at least 3 independent experiments, each done in simplicate.
The percentage of remaining analogue was calculated by doing the ratio between AU of compound and AUC of internal standard. Half-lives were extrapolated from curves.

[2] = target: T1, hAPJ receptor (Homo sapiens, UniProt P35414); experiment: BRET-based β-arrestin2 recruitment assay in HEK293 cells; assay type: cell-based
T1 construct: expressed in transfected cells; host or cells: HEK293, transient transfection with PEI
T1 sequence (P35414 1-380): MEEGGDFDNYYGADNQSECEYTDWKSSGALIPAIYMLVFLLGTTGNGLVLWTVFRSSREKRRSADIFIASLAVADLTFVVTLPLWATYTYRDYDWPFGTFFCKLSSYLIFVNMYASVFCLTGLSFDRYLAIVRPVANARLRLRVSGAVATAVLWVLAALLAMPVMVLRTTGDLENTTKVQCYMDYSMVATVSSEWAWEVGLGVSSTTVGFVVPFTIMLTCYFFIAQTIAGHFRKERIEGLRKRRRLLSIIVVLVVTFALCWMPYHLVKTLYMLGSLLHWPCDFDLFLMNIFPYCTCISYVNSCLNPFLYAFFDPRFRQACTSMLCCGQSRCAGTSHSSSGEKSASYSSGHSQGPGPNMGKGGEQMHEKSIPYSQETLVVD
Experimental: (§1) HEK293 cells were cultivated in high glucose DMEM medium having 10% FBS, 100 U/mL penicillin/streptomycin, 2 mM glutamine, and 20 mM HEPES at 37° C. in T175 flasks under humidified chamber at 5% CO2. […] Cells were then washed with phosphate-buffered saline (PBS) and 90 μL Hanks' balanced salt solution was added in each well. Then, cells were stimulated with analogs at concentrations ranging from 10^−5 M to 10^−11 M for 5 min at 37° C. (Gαi1) or for 30 min at room temperature (β-arrestin2). After stimulation, 5 μM of coelanterazine 400A was added to each well and the plate was read using the BRET^2 filter set of a GeniosPro plate reader (Tecan, Austria). The BRET ratio was determined as GFP10em/RlucIIem. Data were plotted and EC50 values were determined using GraphPad Prism 8. Each data point represents the mean±SEM of at least three different experiments each done in triplicate.

[3] = target: T1, hAPJ receptor; experiment: BRET-based Gαi1 activation assay in HEK293 cells; assay type: cell-based
Experimental: as §1

[4] = target: T2, human APJ (hAPJ) (Homo sapiens, UniProt P35414); experiment: Competitive radioligand binding ([125I][Nle75,Tyr77][Pyr1]-Ape13) on membranes of HEK293 cells stably expressing human APJ
T2 construct: expressed in transfected cells; cell membranes
T2 sequence (P35414 1-380): T1 sequence (P35414 1-380)
Experimental: HEK293 cells stably expressing YFP-tagged human APJ were cultured in DMEM medium supplemented with 10% FBS, at 37° C. under a humid atmosphere maintaining 5% CO2. Antibiotic G418 (400 μg/mL) was added to maintain a selection pressure for APJ-expressing cells while penicillin/streptomycin (0.1%) were used to prevent bacterial contamination.
Binding experiments were performed on cell membranes of HEK293 stably expressing the YFP-tagged human APJ receptor. Cells were frozen at −80° C. for storage and quickly thawed right before the experiments (1 min at 37° C.). […] The precipitate (cell membranes) was suspended in binding buffer (50 mM Tris-HCl, 0.2% BSA, pH 7.4). Binding assays were run in 96-well plates. […] (820 Ci/mmol)^3 and test ligand with a range of concentrations from 10^−1 to 10^−11 M in a total volume of 200 μL for 1 h at room temperature.
The incubation mixtures were filtered through a glass fiber filter (Millipore, pre-absorbed of PEI 0.5% for 2 h at 4° C.) to remove unbound ligands, and the filter membranes were washed three times with 170 μL cold binding buffer (4° C.). The γ emission was measured using a 1470 Wizard γ-counter from PerkinElmer (Waltham, USA) (80% efficiency).

CCCC[C@H](NC(=O)[C@@H]1CCCN1C(=O)CNC(=O)[C@H](CCCCN)NC(=O)[C@@H]1CC(=O)NC[C@H](NC(=O)[C@H](CCCNC(=N)N)NC(=O)[C@@H]2CCC(=O)N2)C(=O)N[C@@H](CCCNC(=N)N)C(=O)N[C@@H](CC(C)C)C(=O)N[C@@H](CO)C(=O)N1)C(=O)N1CCC[C@H]1C(=O)N[C@@H](Cc1ccccc1)C(=O)O [Compound 14, Pyr-R-c[Dap-R-L-S-Asp]c-K-G-P-Nle-P-F]
half-life at 0.182 mM [1]: 12 ± 6 min

CC(C)C[C@@H]1NC(=O)[C@H](CCCNC(=N)N)NC(=O)[C@@H](N)CC=CC[C@@H](C(=O)N[C@@H](CCCCN)C(=O)NCC(=O)N2CCC[C@H]2C(=O)N[C@@H](Cc2cccc3ccccc23)C(=O)O)NC(=O)[C@H](CO)NC1=O [Compound 35, NH2-c[X-R-L-S-X]c-K-G-P-1Nal]
half-life at 0.182 mM [1]: 18 ± 6 min

CCCC[C@@H]1NC(=O)[C@@H](N)CC=CC[C@@H](C(=O)N[C@@H](CCCCN)C(=O)NCC(=O)N2CCC[C@H]2C(=O)N[C@@H](CCCC)C(=O)N2CCC[C@H]2C(=O)N[C@@H](Cc2ccccc2)C(=O)O)NC(=O)[C@H](CO)NC(=O)[C@H](CC(C)C)NC1=O [Compound 24, NH2-c[X-Nle-L-S-X]c-K-G-P-Nle-P-F]
half-life at […] [1]: 228 ± 30 min

CC(C)C[C@@H]1NC(=O)[C@H](CCCNC(=N)N)NC(=O)[C@@H](N)CC=CC[C@@H](C(=O)N[C@@H](CCCCN)C(=O)NCC(=O)N2CCC[C@H]2C(=O)N[C@@H](Cc2ccc(OCc3ccccc3)cc2)C(=O)O)NC(=O)[C@H](CO)NC1=O [Compound 37, NH2-c[X-R-L-S-X]c-K-G-P-TyrOBn]
half-life at 0.182 mM [1]: 30 ± 6 min

CCCC[C@H](NC(=O)[C@@H]1CCCN1C(=O)CNC(=O)[C@H](CCCCN)NC(=O)[C@@H]1CC(=O)NCCCC[C@H](NC(=O)[C@H](CCCNC(=N)N)NC(=O)[C@@H]2CCC(=O)N2)C(=O)N[C@@H](CCCNC(=N)N)C(=O)N[C@@H](CC(C)C)C(=O)N[C@@H](CO)C(=O)N1)C(=O)N1CCC[C@H]1C(=O)N[C@@H](Cc1ccccc1)C(=O)O [Compound 17, Pyr-R-c[Lys-R-L-S-Asp]c-K-G-P-Nle-P-F] ([pGlu]RKRLSDKGP[Nle]PF-OH; lactam 3-7)
half-life at 0.182 mM [1]: 6 min

CC(C)C[C@@H]1NC(=O)[C@H](CCCNC(=N)N)NC(=O)[C@@H](N)CC=CC[C@@H](C(=O)N[C@@H](CCCCN)C(=O)NCC(=O)N2CCC[C@H]2C(=O)N[C@@H](Cc2ccc(OCc3ccccc3)c(C3CCCC3)c2)C(=O)O)NC(=O)[C@H](CO)NC1=O [Compound 38, NH2-c[X-R-L-S-X]c-K-G-P-cypTyr(OBn)]
half-life at 0.182 mM [1]: 678 ± 60 min

CCCC[C@H](NC(=O)[C@@H]1CCCN1C(=O)CNC(=O)[C@H](CCCCN)NC(=O)[C@@H]1CC=CCCC(=O)N[C@@H](CCCNC(=N)N)C(=O)N[C@@H](CC(C)C)C(=O)N[C@@H](CO)C(=O)N1)C(=O)N1CCC[C@H]1C(=O)N[C@@H](Cc1ccccc1)C(=O)O [Compound 22, Ø-c[X-R-L-S-X]c-K-G-P-Nle-P-F]
half-life at […] [1]: 120 ± 12 min

CCCC[C@H](NC(=O)[C@@H]1CCCN1C(=O)CNC(=O)[C@H](CCCCN)NC(=O)[C@@H]1Cc2cncn2CC=CC[C@H](N)C(=O)N[C@@H](CCCNC(=N)N)C(=O)N[C@@H](CC(C)C)C(=O)N[C@@H](CO)C(=O)N1)C(=O)N1CCC[C@H]1C(=O)N[C@@H](Cc1ccccc1)C(=O)O [Compound 25, NH2-c[X-R-L-S-Alh]c-K-G-P-Nle-P-F]
half-life at 0.182 mM [1]: 120 ± 18 min

CC(C)C[C@@H]1NC(=O)[C@@H]2CCCN2C(=O)[C@@H](NC(=O)[C@H](CO)NC(=O)[C@H](CCCNC(=N)N)NC(=O)[C@H](CCCNC(=N)N)NC(=O)[C@@H]2CCC(=O)N2)CCC(=O)NCCCC[C@@H](C(=O)N[C@@H](CCCNC(=N)N)C(=O)N[C@H](C(=O)N2CCC[C@H]2C(=O)N[C@@H](Cc2ccc(Br)cc2)C(=O)N2CCC[C@H]2C(=O)O)C(C)C)NC(=O)[C@H](Cc2c[nH]cn2)NC1=O [Compound 92, Pyr-R-R-S-[E-P-L-H-K]-R-V-P-4BrF-P] ([pGlu]RRSEPLHKRVP[Phe(4-Br)]P-OH; lactam 5-9)
EC50 [2]: 439 ± 91 nM | EC50 [3]: 16 ± 3 nM | Ki ([4]; Binding Ki): 15 ± 2 nM

CC(C)C[C@@H]1NC(=O)[C@H](CCCNC(=N)N)NC(=O)[C@@H](N)CC=CC[C@@H](C(=O)N[C@@H](CCCCN)C(=O)NCC(=O)N2CCC[C@H]2C(=O)N[C@@H](Cc2ccc3ccccc3c2)C(=O)O)NC(=O)[C@H](CO)NC1=O [Compound 36, NH2-c[X-R-L-S-X]c-K-G-P-2Nal]
half-life at 0.182 mM [1]: 24 ± 6 min

CCCC[C@H](NC(=O)[C@@H]1CCCN1C(=O)CNC(=O)[C@H](CCCCN)NC(=O)[C@@H]1CCCC[C@H](NC(=O)[C@H](CCCNC(=N)N)NC(=O)[C@@H]2CCC(=O)N2)C(=O)N[C@@H](CCCNC(=N)N)C(=O)N[C@@H](CC(C)C)C(=O)N[C@@H](CO)C(=O)N1)C(=O)N1CCC[C@H]1C(=O)N[C@@H](Cc1ccccc1)C(=O)O [Compound 13, Pyr-R-c*[X-R-L-S-X]c-K-G-P-Nle-P-F]
Emax ([2]; HEK293, Table V, read-out: ß-arr2 Emax): 75% | EC50 ([2]; Table I, read-out: EC50 β-arr2): 199 ± 65 nM | EC50 ([2]; Table V, read-out: ß-arr2 EC50): 199 ± 65 nM | Emax ([3]; HEK293, Table V, read-out: Gαi1 Emax): 102% | Ki ([4]; Table I, mean ± SEM, read-out: Ki binding): 4.3 ± 0.3 nM | Ki ([4]; Table V, read-out: Binding Ki): 4.3 ± 0.3 nM

CC(=O)N[C@@H](CCCCN)C(=O)N[C@@H](Cc1ccccc1)C(=O)N[C@@H](CCCNC(=N)N)C(=O)N[C@@H](CCCNC(=N)N)C(=O)N[C@@H](CCC(N)=O)C(=O)N[C@@H](CCCNC(=N)N)C(=O)N1CCC[C@H]1C(=O)N[C@@H](CCCNC(=N)N)C(=O)N[C@@H](CC(C)C)C(=O)N[C@H]1CCC(=O)NCCCC[C@@H](C(=O)N2CCC[C@H]2C(=O)N[C@@H](C)C(=O)N2CCC[C@H]2C(=O)N[C@@H](Cc2ccccc2)C(=O)O)NC(=O)[C@H](C)NC(=O)[C@H](Cc2c[nH]cn2)NC1=O [Compound 62, Ac-K-F-R-R-Q-R-P-R-L-[E-H-A-K]-P-A-P-F] (Ac-KFRRQRPRLEHAKPAPF-OH; lactam 10-13)
EC50 [2]: 1260 nM | Ki ([4]; Ki binding): 11 ± 7 nM

N=C(N)NCCC[C@@H]1NC(=O)[C@@H](N)CC=CCCNCCC[C@@H](C(=O)N2CCC[C@H]2C(=O)N[C@@H](Cc2ccc(OCc3ccccc3)cc2)C(=O)O)NC1=O [Compound 51, NH2-c[X-R-Orn(N-butenyl)]-P-Tyr(Obn)] (H-[AllylGly]R[X9]PY(Bn)-OH; staple 1-3)
Ki ([4]; Ki binding): > 10000 nM

CCCC[C@H](NC(=O)[C@@H]1CCCN1C(=O)CNC(=O)[C@@H]1CC=CC[C@H](N)C(=O)N[C@@H](CCCNC(=N)N)C(=O)N[C@@H](CC(C)C)C(=O)N[C@@H](CO)C(=O)N1)C(=O)O [Compound 31, NH2-c[X-R-L-S-X]c-G-P-Nle] (H-[AllylGly]RLS[AllylGly]GP[Nle]-OH; staple 1-5)
Ki ([4]; Ki (APJ affinity)): 0.6 nM | Ki ([4]; Ki binding): > 10000 nM
